Laboratory results as given in patent publication US9981964B2 (Agency for Science, Technology and Research, priority 2013, dated 2018).

Tested on: HEK293-STF3A cells
Experiment: STF3A assay (STF luciferase reporter in Wnt3A-expressing HEK293 cells)
Assay type: cell-based
Settings: Homo sapiens, 24 h, 1 day of treatment
Summary of the method: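 HEK293 cells carrying the STF reporter and expressing Wnt3A, seeded 2×10^4 per well overnight, then treated 1 day with compound at final 50 μM to 1.5 nM. Luciferase activity read by luminescence after Steady-Glo reagent, 10 min at room temperature.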

For `CC(C(=O)Nc1ccc(-c2ccc(F)nc2)cn1)N1CCCC2=C1C(=O)N(C)C2=O` (stereo not drawn) [Compound 96, N-(6′-fluoro-3,3′-bipyridin-6-yl)-2-(6-methyl-5,7-dioxo-2,3,4,5,6,7-hexahydro-1H-pyrrolo[3,4-b]pyridin-1-yl)propanamide], which IC50 is on record?
Its IC50 is less than 1 µM.

With `CC(C(=O)Nc1ccc(-c2cccnc2F)cn1)N1CCCC2=C1C(=O)N(C)C2=O` (stereo not drawn) [Compound 97, N-(2′-fluoro-3,3′-bipyridin-6-yl)-2-(6-methyl-5,7-dioxo-2,3,4,5,6,7-hexahydro-1H-pyrrolo[3,4-b]pyridin-1-yl)propanamide] as the compound, how does the IC50 read?
Its IC50 is less than 0.1 µM.

For `COc1cc(NC(=O)CN2CCCC3=C2C(=O)N(C)C3=O)ccc1-c1ccccc1` [Compound 99, N-(2-methoxy-[1,1′-biphenyl]-4-yl)-2-(6-methyl-5,7-dioxo-2,3,4,5,6,7-hexahydro-1H-pyrrolo[3,4-b]pyridin-1-yl)acetamide], which IC50 is on record?
The IC50 was less than 10 µM.

`CN1C(=O)C2=C(C1=O)N(CC(=O)Nc1ccc(-c3cncc(F)c3)nc1)CCC2` [Compound 100, N-(5′-fluoro-[2,3′-bipyridin]-5-yl)-2-(6-methyl-5,7-dioxo-2,3,4,5,6,7-hexahydro-1H-pyrrolo[3,4-b]pyridin-1-yl)acetamide] was tested. Which IC50 did it give?
The IC50 was less than 0.1 µM.

For `CN1C(=O)C2=C(C1=O)N(CC(=O)Nc1ccc(-c3cncnc3)cn1)CCC2` [Compound 101, 2-(6-methyl-5,7-dioxo-2,3,4,5,6,7-hexahydro-1H-pyrrolo[3,4-b]pyridin-1-yl)-N-(5-(pyrimidin-5-yl)pyridin-2-yl)acetamide], which IC50 is on record?
The IC50 was less than 0.1 µM.

For `O=C(CN1CCCC2=C1C(=O)N(C1CC1)C2=O)Nc1ccc(-c2cncnc2)nc1` [Compound 102, 2-(6-cyclopropyl-5,7-dioxo-2,3,4,5,6,7-hexahydro-1H-pyrrolo[3,4-b]pyridin-1-yl)-N-(6-(pyrimidin-5-yl)pyridin-3-yl)acetamide], which IC50 is on record?
Its IC50 is less than 0.1 µM.

`CN1C(=O)C2=C(C1=O)N(CC(=O)Nc1ccc(-c3cncnc3)nc1)CCC2` [Compound 103, 2-(6-methyl-5,7-dioxo-2,3,4,5,6,7-hexahydro-1H-pyrrolo[3,4-b]pyridin-1-yl)-N-(6-(pyrimidin-5-yl)pyridin-3-yl)acetamide] was tested. Which IC50 did it give?
The IC50 was less than 1 µM.

With `O=C(CN1CCCC2=C1C(=O)N(C1CC1)C2=O)Nc1ccc(-c2cccnc2F)cn1` [Compound 104, 2-(6-cyclopropyl-5,7-dioxo-2,3,4,5,6,7-hexahydro-1H-pyrrolo[3,4-b]pyridin-1-yl)-N-(2′-fluoro-[3,3′-bipyridin]-6-yl)acetamide] as the compound, how does the IC50 read?
Its IC50 is less than 0.1 µM.

Which IC50 does the source give for `O=C(CN1CCCC2=C1C(=O)N(C1CC1)C2=O)Nc1ccc(-c2ccc(F)nc2)cn1` [Compound 105, 2-(6-cyclopropyl-5,7-dioxo-2,3,4,5,6,7-hexahydro-1H-pyrrolo[3,4-b]pyridin-1-yl)-N-(6′-fluoro-[3,3′-bipyridin]-6-yl)acetamide] here?
Its IC50 is less than 0.1 µM.

Which IC50 does the source give for `O=C(CN1CCCC2=C1C(=O)N(C1CC1)C2=O)Nc1ccc(-c2cncc(F)c2)cn1` [Compound 106, 2-(6-cyclopropyl-5,7-dioxo-2,3,4,5,6,7-hexahydro-1H-pyrrolo[3,4-b]pyridin-1-yl)-N-(5′-fluoro-[3,3′-bipyridin]-6-yl)acetamide] here?
Its IC50 is less than 0.1 µM.

How did the IC50 turn out when `O=C(CN1CCCC2=C1C(=O)N(C1CC1)C2=O)Nc1ncc(-c2cccnc2)cc1F` [Compound 107, 2-(6-cyclopropyl-5,7-dioxo-2,3,4,5,6,7-hexahydro-1H-pyrrolo[3,4-b]pyridin-1-yl)-N-(5-fluoro-[3,3′-bipyridin]-6-yl)acetamide] was run?
The IC50 was less than 1 µM.

With `CN1C(=O)C2=C(C1=O)N(CC(=O)Nc1ccc(-c3ccc(F)nc3)nc1)CCC2` [Compound 108, N-(6′-fluoro-[2,3′-bipyridin]-5-yl)-2-(6-methyl-5,7-dioxo-2,3,4,5,6,7-hexahydro-1H-pyrrolo[3,4-b]pyridin-1-yl)acetamide] as the compound, how does the IC50 read?
The IC50 was less than 1 µM.

`Cc1ncccc1-c1ccc(NC(=O)CN2CCCC3=C2C(=O)N(C2CC2)C3=O)nc1` [Compound 110, 2-(6-cyclopropyl-5,7-dioxo-2,3,4,5,6,7-hexahydro-1H-pyrrolo[3,4-b]pyridin-1-yl)-N-(2′-methyl-[3,3′-bipyridin]-6-yl)acetamide] was tested. Which IC50 did it give?
Its IC50 is less than 1 µM.

With `Cc1ccncc1-c1ccc(NC(=O)CN2CCCC3=C2C(=O)N(C2CC2)C3=O)nc1` [Compound 111, 2-(6-cyclopropyl-5,7-dioxo-2,3,4,5,6,7-hexahydro-1H-pyrrolo[3,4-b]pyridin-1-yl)-N-(4′-methyl-[3,3′-bipyridin]-6-yl)acetamide] as the compound, how does the IC50 read?
The IC50 was less than 1 µM.

How did the IC50 turn out when `Cc1nc(NC(=O)CN2CCCC3=C2C(=O)N(C)C3=O)ccc1-c1cccnc1` [Compound 112] was run?
Its IC50 is less than 10 µM.

With `Cc1cc(-c2cccnc2)cnc1NC(=O)CN1CCCC2=C1C(=O)N(C)C2=O` [Compound 113, 2-(6-methyl-5,7-dioxo-2,3,4,5,6,7-hexahydro-1H-pyrrolo[3,4-b]pyridin-1-yl)-N-(5-methyl-[3,3′-bipyridin]-6-yl)acetamide] as the compound, how does the IC50 read?
The IC50 was greater than 10 µM.

`Cc1cc(NC(=O)CN2CCCC3=C2C(=O)N(C)C3=O)ncc1-c1cccnc1` [Compound 114, 2-(6-methyl-5,7-dioxo-2,3,4,5,6,7-hexahydro-1H-pyrrolo[3,4-b]pyridin-1-yl)-N-(4-methyl-[3,3′-bipyridin]-6-yl)acetamide] was tested. Which IC50 did it give?
The IC50 was less than 5 µM.

Which IC50 does the source give for `CN1C(=O)C2=C(C1=O)N(CC(=O)Nc1ccc(-c3cnccn3)cc1)CCC2` [Compound 118, 2-(6-methyl-5,7-dioxo-2,3,4,5,6,7-hexahydro-1H-pyrrolo[3,4-b]pyridin-1-yl)-N-(4-(pyrazin-2-yl)phenyl)acetamide] here?
Its IC50 is less than 0.1 µM.

With `CC(C(=O)Nc1cc(F)c(-c2cccnc2)cn1)N1CCCC2=C1C(=O)N(C)C2=O` (stereo not drawn) [Compound 119, N-(4-fluoro-3,3′-bipyridin-6-yl)-2-(6-methyl-5,7-dioxo-2,3,4,5,6,7-hexahydro-1H-pyrrolo[3,4-b]pyridin-1-yl)propanamide] as the compound, how does the IC50 read?
Its IC50 is less than 0.1 µM.

`Cc1cc(NC(=O)CN2CCCC3=C2C(=O)N(C2CC2)C3=O)ncc1-c1cccnc1` [Compound 120, 2-(6-cyclopropyl-5,7-dioxo-2,3,4,5,6,7-hexahydro-1H-pyrrolo[3,4-b]pyridin-1-yl)-N-(4-methyl-[3,3′-bipyridin]-6-yl)acetamide] was tested. Which IC50 did it give?
Its IC50 is less than 1 µM.

With `Cc1ncccc1-c1ccc(NC(=O)CN2CCCC3=C2C(=O)N(C2CC2)C3=O)cn1` [Compound 121, 2-(6-cyclopropyl-5,7-dioxo-2,3,4,5,6,7-hexahydro-1H-pyrrolo[3,4-b]pyridin-1-yl)-N-(2′-methyl-2,3′-bipyridin-5-yl)acetamide] as the compound, how does the IC50 read?
Its IC50 is less than 0.1 µM.

How did the IC50 turn out when `CN1C(=O)C2=C(C1=O)N(CC(=O)Nc1ccc(-c3ccncc3)nc1)CCC2` [Compound 122, N-(2,4′-bipyridin-5-yl)-2-(6-methyl-5,7-dioxo-2,3,4,5,6,7-hexahydro-1H-pyrrolo[3,4-b]pyridin-1-yl)acetamide] was run?
The IC50 was less than 1 µM.

For `Cc1nc(-c2cccnc2)ccc1NC(=O)CN1CCCC2=C1C(=O)N(C1CC1)C2=O` [Compound 123, 2-(6-cyclopropyl-5,7-dioxo-2,3,4,5,6,7-hexahydro-1H-pyrrolo[3,4-b]pyridin-1-yl)-N-(6-methyl-2,3′-bipyridin-5-yl)acetamide], which IC50 is on record?
The IC50 was greater than 10 µM.

Which IC50 does the source give for `O=C(CN1CCCC2=C1C(=O)N(C1CC1)C2=O)Nc1ccc(-c2ccc(F)nc2)nc1` [Compound 124, 2-(6-cyclopropyl-5,7-dioxo-2,3,4,5,6,7-hexahydro-1H-pyrrolo[3,4-b]pyridin-1-yl)-N-(6′-fluoro-[2,3′-bipyridin]-5-yl)acetamide] here?
Its IC50 is less than 0.1 µM.
